Target: T1, hGIP-R (Homo sapiens, UniProt P48546)
T1 construct: expressed in transfected cells; host or cells: HEK-293 clonal cell lines
T1 sequence (P48546 22-466): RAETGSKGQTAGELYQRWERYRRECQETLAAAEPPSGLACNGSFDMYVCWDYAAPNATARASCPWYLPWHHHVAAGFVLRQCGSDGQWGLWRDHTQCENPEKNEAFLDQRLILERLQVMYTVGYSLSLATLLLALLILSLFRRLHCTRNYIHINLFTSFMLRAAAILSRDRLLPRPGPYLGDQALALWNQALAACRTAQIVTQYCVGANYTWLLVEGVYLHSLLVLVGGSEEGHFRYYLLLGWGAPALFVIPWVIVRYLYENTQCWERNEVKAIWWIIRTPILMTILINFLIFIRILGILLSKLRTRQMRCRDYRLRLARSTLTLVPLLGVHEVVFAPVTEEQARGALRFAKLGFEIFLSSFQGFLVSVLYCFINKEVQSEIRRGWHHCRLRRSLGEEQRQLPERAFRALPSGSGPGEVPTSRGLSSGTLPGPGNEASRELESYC
Experiment: Functional hGIP-R Assay (cAMP formation, HTRF)
Type: cell-based
Settings: for Emax: cAMP efficacy, percent of maximal response to GIP(1-42)OH, 37° C., 0.1% bovine casein, arithmetic mean ± SEM; for EC50: cAMP potency, HEK-293 cells expressing hGIP-R, incubated at 37° C. in the presence of 0.1% bovine casein, geometric mean, read-out: Human GIP-R EC50, nM (SEM, n)
Outline: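 HEK-293 cells expressing hGIP-R were given a 20-point compound series in DMEM with 0.1% casein, 250 μM IBMX, 1% DMSO, 30 min at 37 °C. cAMP was read by HTRF against a standard curve, expressed as % of human GIP (1-42) OH maximum; EC50 and Emax came from four-parameter fits.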

| SMILES | Emax [%] | EC50 [nM] |
| --- | --- | --- |
| Cc1nc(-c2cnc3nn(C4CC4)cc3c2)ccc1[C@H]1C[C@@]12CCN([C@H](Cc1cnn(C(F)F)c1)C(=O)NC(C)(C)Cn1nc(C(F)(F)F)cc1-c1ccn(C3CC3)c(=O)c1)C2=O [Example 169, (R)—N-(1-(5-(1-cyclopropyl-2-oxo-1,2-dihydropyridin-4-yl)-3-(trifluoromethyl)-1H-pyrazol-1-yl)-2-methylpropan-2-yl)-2-((1R,3R)-1-(6-(2-cyclopropyl-2H-pyrazolo[3,4-b]pyridin-5-yl)-2-methylpyridin-3-yl)-4-oxo-5-azaspiro[2.4]heptan-5-yl)-3-(1-(difluoromethyl)-1H-pyrazol-4-yl)propanamide] | 58.9 ± 1.86 | 1.15 |
| Cn1cc(C[C@@H](NC(=O)[C@H]2C[C@@H]2c2ccc(-c3cnc4nn(C)cc4c3)cc2)C(=O)NC(C)(C)Cn2nc(C(F)(F)F)cc2-c2n[nH]cc2F)cn1 [Example 14, (1S,2S)-N-((R)-1-((1-(4-Fluoro-5′-(trifluoromethyl)-1H,2′H-[3,3′-bipyrazol]-2′-yl)-2-methylpropan-2-yl)amino)-3-(1-methyl-1H-pyrazol-4-yl)-1-oxopropan-2-yl)-2-(4-(2-methyl-2H-pyrazolo[3,4-b]pyridin-5-yl)phenyl) cyclopropane-1-carboxamide] | 103 ± 10.2 | 87.7 |
| Cn1cc2cc(-c3ccc([C@H]4C[C@@]45CCN([C@H](Cc4cnn(C(F)F)c4)C(=O)NC(C)(C)Cn4nc(C(F)(F)F)cc4-c4ccc(OC(F)F)nn4)C5=O)cc3)cnc2n1 [Example 121, (R)-N-(1-(5-(6-(Difluoromethoxy)pyridazin-3-yl)-3-(trifluoromethyl)-1H-pyrazol-1-yl)-2-methylpropan-2-yl)-3-(1-(difluoromethyl)-1H-pyrazol-4-yl)-2-((1R,3R)-1-(4-(2-methyl-2H-pyrazolo[3,4-b]pyridin-5-yl)phenyl)-4-oxo-5-azaspiro[2.4]heptan-5-yl)propanamide] | 74.6 ± 1.47 | 107 |
| CN(C(=O)[C@H]1C[C@@H]1c1ccc(-c2cnc3nn(C)cc3c2)cc1F)[C@H](Cc1cnn(C)c1)C(=O)NC(C)(C)Cn1nc(C(F)(F)F)cc1-c1ccc(=O)n(C)c1 [Example 61, (1S,2S)-2-(2-Fluoro-4-(2-methyl-2H-pyrazolo [3,4-b]pyridin-5-yl)phenyl)-N-methyl-N-((R)-1-((2-methyl-1-(5-(1-methyl-6-oxo-1,6-dihydropyridin-3-yl)-3-(trifluoromethyl)-1H-pyrazol-1-yl)propan-2-yl)amino)-3-(1-methyl-1H-pyrazol-4-yl)-1-oxopropan-2-yl) cyclopropane-1-carboxamide] | 88.5 ± 2.66 | 56.8 |
| CC(C)(Cn1cc(C(F)(F)F)cn1)NC(=O)[C@@H](Cc1cnc2ncccn12)NC(=O)[C@H]1C[C@@H]1c1ccc(-c2cnc3nc(C4CCC4)cn3c2)cc1 [Example 78, (1S,2S)-2-(4-(2-Cyclobutylimidazo[1,2-a]pyrimidin-6-yl)phenyl)-N-((R)-3-(imidazo[1,2-a]pyrimidin-3-yl)-1-((2-methyl-1-(4-(trifluoromethyl)-1H-pyrazol-1-yl)propan-2-yl)amino)-1-oxopropan-2-yl)cyclopropane-1-carboxamide] | 113 ± 18.8 | 20.3 |
| COc1ccc(-c2ccc([C@H]3C[C@@]34CCN([C@H](Cc3cnn(C(F)F)c3)C(=O)NC(C)(C)Cn3nc(C(F)(F)F)cc3-c3ccn(C5CC5)c(=O)c3)C4=O)c(C)n2)cn1 [Example 172, (R)-N-(1-(5-(1-cyclopropyl-2-oxo-1,2-dihydropyridin-4-yl)-3-(trifluoromethyl)-1H-pyrazol-1-yl)-2-methylpropan-2-yl)-3-(1-(difluoromethyl)-1H-pyrazol-4-yl)-2-((1R,3R)-1-(6′-methoxy-6-methyl-[2,3′-bipyridin]-5-yl)-4-oxo-5-azaspiro[2.4]heptan-5-yl)propanamide] | 12.6 ± 0.102 | 3.16 |
| Cn1cc(-c2ccc([C@H]3C[C@@]34CCN([C@H](Cc3cnn(C(F)F)c3)C(=O)NC(C)(C)Cn3nc(C(F)(F)F)cc3-c3cn[nH]n3)C4=O)c(Cl)c2)cnc1=O [Example 154, (R)—N-(1-(5-(2H-1,2,3-Triazol-4-yl)-3-(trifluoromethyl)-1H-pyrazol-1-yl)-2-methylpropan-2-yl)-2-((1S,3R)-1-(2-chloro-4-(1-methyl-2-oxo-1,2-dihydropyrimidin-5-yl)phenyl)-4-oxo-5-azaspiro[2.4]heptan-5-yl)-3-(1-(difluoromethyl)-1H-pyrazol-4-yl)propanamide] | 74.2 ± 2.83 | 5.24 |
| Cc1cn2cc(-c3ccc([C@H]4C[C@@]45CCN([C@H](Cc4cnn(C(F)F)c4)C(=O)NC(C)(C)Cc4nc(C(F)(F)F)cn4C4CCN(C)C4=O)C5=O)c(Cl)c3)cnc2n1 (single isomer, unassigned; isomer 1) [Example 177] | 115 ± 1.59 | 0.845 |
| Cc1nc(-c2ccc(C(C)(C)O)nc2)ccc1[C@H]1C[C@@]12CCN([C@H](Cc1cnn(C(F)F)c1)C(=O)NC(C)(C)Cn1nc(C(F)(F)F)cc1-c1ccn(C3CC3)c(=O)c1)C2=O [Example 171, (R)-N-(1-(5-(1-cyclopropyl-2-oxo-1,2-dihydropyridin-4-yl)-3-(trifluoromethyl)-1H-pyrazol-1-yl)-2-methylpropan-2-yl)-3-(1-(difluoromethyl)-1H-pyrazol-4-yl)-2-((1R,3R)-1-(6′-(2-hydroxypropan-2-yl)-6-methyl-[2,3′-bipyridin]-5-yl)-4-oxo-5-azaspiro[2.4]heptan-5-yl)propanamide] | 25.1 ± 2.38 | 14.2 |
| Cc1nc(-c2cnc3nc(C4CC4)cn3c2)ccc1[C@H]1C[C@@]12CCN([C@H](Cc1cnn(C(F)F)c1)C(=O)NC(C)(C)Cn1nc(C(F)(F)F)cc1-c1cnc(C(C)(C)O)nc1)C2=O [Example 158, (R)-2-((1R,3R)-1-(6-(2-cyclopropylimidazo[1,2-a]pyrimidin-6-yl)-2-methylpyridin-3-yl)-4-oxo-5-azaspiro[2.4]heptan-5-yl)-3-(1-(difluoromethyl)-1H-pyrazol-4-yl)-N-(1-(5-(2-(2-hydroxypropan-2-yl)pyrimidin-5-yl)-3-(trifluoromethyl)-1H-pyrazol-1-yl)-2-methylpropan-2-yl)propanamide] | 102 ± 1.41 | 1.23 |
| COc1cc2cc(-c3ccc([C@H]4C[C@@]45CCN([C@H](Cc4cnn(C(F)F)c4)C(=O)NC(C)(C)Cn4nc(C(F)(F)F)cc4-c4ccc(=O)n(C)c4)C5=O)cc3)cnc2nc1C (single isomer, unassigned; isomer 1) [Example 105] | 8.43 ± 1.23 | 49.8 |
| Cn1cc(C[C@@H](NC(=O)[C@H]2C[C@@H]2c2ccc(-c3cnc4nn(C)cc4c3)cc2)C(=O)NC(C)(C)Cn2nc(C(F)(F)F)cc2-c2cc[nH]n2)cn1 [Example 42] | 114 ± 10.2 | 52.7 |
| CC(C)(Cn1cc(C(F)(F)F)cn1)NC(=O)[C@@H](Cc1cnc2ncccn12)NC(=O)[C@H]1C[C@@H]1c1ccc(-c2cnc3nc(C4CC4)cn3c2)cc1 [Example 76, (1S,2S)-2-(4-(2-Cyclopropylimidazo[1,2-a]pyrimidin-6-yl)phenyl)-N-((R)-3-(imidazo[1,2-a]pyrimidin-3-yl)-1-((2-methyl-1-(4-(trifluoromethyl)-1H-pyrazol-1-yl)propan-2-yl)amino)-1-oxopropan-2-yl)cyclopropane-1-carboxamide] | 97.2 ± 7.63 | 16.2 |
| Cn1cc(C[C@@H](NC(=O)[C@H]2C[C@@H]2c2ccc(-c3cnc4nn(C)cc4c3)cc2)C(=O)NC(C)(C)Cn2nc(C(F)(F)F)cc2-c2ccc(=O)n(C)c2)cn1 [Example 19, (1S,2S)-N-((R)-1-((2-Methyl-1-(5-(1-methyl-6-oxo-1,6-dihydropyridin-3-yl)-3-(trifluoromethyl)-1H-pyrazol-1-yl)propan-2-yl)amino)-3-(1-methyl-1H-pyrazol-4-yl)-1-oxopropan-2-yl)-2-(4-(2-methyl-2H-pyrazolo[3,4-b]pyridin-5-yl)phenyl) cyclopropane-1-carboxamide] | 123 ± 1.72 | 66.9 |
| CC(C)(Cn1cc(C(F)(F)F)cn1)NC(=O)[C@@H](Cc1cnc2ncccn12)NC(=O)[C@H]1C[C@@H]1c1ccc(-c2cnc3nc(C4(C)CC4)cn3c2)cc1 [Example 81, (1S,2S)-N-((R)-3-(Imidazo[1,2-a]pyrimidin-3-yl)-1-((2-methyl-1-(4-(trifluoromethyl)-1H-pyrazol-1-yl)propan-2-yl)amino)-1-oxopropan-2-yl)-2-(4-(2-(1-methylcyclopropyl)imidazo[1,2-a]pyrimidin-6-yl)phenyl)cyclopropane-1-carboxamide] | 117 ± 0.667 | 33.1 |
| Cn1cc2cc(-c3ccc([C@H]4C[C@@]45CCN([C@H](Cc4cnn(C(F)F)c4)C(=O)NC(C)(C)Cn4nc(C(F)(F)F)cc4-c4cc(C(F)(F)F)c(=O)n(C)c4)C5=O)cc3)cnc2n1 [Example 130, (R)-3-(1-(Difluoromethyl)-1H-pyrazol-4-yl)-N-(2-methyl-1-(5-(1-methyl-6-oxo-5-(trifluoromethyl)-1,6-dihydropyridin-3-yl)-3-(trifluoromethyl)-1H-pyrazol-1-yl)propan-2-yl)-2-((1R,3R)-1-(4-(2-methyl-2H-pyrazolo[3,4-b]pyridin-5-yl)phenyl)-4-oxo-5-azaspiro[2.4]heptan-5-yl)propanamide] | 74.9 ± 11.6 | 104 |

— patent US20260108546A1 (ELI LILLY AND COMPANY, priority 2024, published 2026)
